# Target: T1, benzodiazepine ω3 receptor (Rattus norvegicus, UniProt P16257)
# T1 construct: The kidney membrane fraction (ω3) was prepared as follows; from tissue; host or cells: rat (SD, male) kidney membrane fraction
# Experiment: Benzodiazepine ω3 receptor binding inhibition test ([3H]-PK-11195, rat kidney membrane fraction)
# Conditions: 1 h, compound final concentration 100 nM, [3H]-PK-11195 1 nM, 4° C., one hour, read-out: [3H]-PK-11195 Binding inhibitory rate (%)
# Protocol: Experiment 1: Benzodiazepine ω3 receptor and benzodiazepine ω1, ω2 receptors binding inhibition test
# The benzodiazepine ω3 receptor binding assay was carried out according to the method disclosed in the literature (Mol. Phamacol., 34, 800-805, 1988), and the benzodiazepine ω1, ω2 receptor binding assays were carried out according to the method disclosed in the literature (Neurophamacol., 34, 1169-1175, 1995), respectively.
# SD male rats (Japan Charles River) were decapitated, and the kidney and the cerebral cortex were collected. The kidney membrane fraction (ω3) was prepared as follows. The kidney was homogenized with ice-cold 50 mM Tris-HCl buffer (pH 7.6) of about 5-times volume of the wet tissue weight, and the homogenate was centrifuged at 4° C. for 10 minutes at 20,000 g. The pellets thus obtained were suspended again, and centrifuged at 4° C. for 10 minutes at 20,000 g. These resuspension and centrifugation procedures were repeated once more, and the obtained pellets were diluted in a 50 mM Tris-HCl buffer (pH 7.6) into a concentration of 0.1 mg of protein per one assay of the receptor binding test. The cerebral cortex membrane fraction (ω1 and ω2) was prepared as follows. The cerebral cortex was homogenized with ice-cold potassium phosphate buffer (200 mM KCl, 20 mM KOH, 20 mM KH2PO4, pH 7.4) of 15-times volume of the wet tissue weight, and the homogenate was centrifuged at 4° C. for 15 minutes at 32,500 g. The obtained pellets were suspended again and centrifuged at 4° C. for 15 minutes at 32,500 g. These resuspension and centrifugation procedures were repeated once more, and the obtained pellets were diluted in the potassium phosphate buffer into a concentration of 0.1 mg of protein per one assay of the receptor binding test. Both of these membrane fractions were frozen and stored at −80° C.
# As the [^3H]-labeled ligand, [^3H]-PK-11195 (for ω3; PerkinElmer) or [^3H]-Ro-15-1788 [Flumazenil] (for ω1 and ω2; PerkinElmer) was used. […] In order to obtain total binding in the binding inhibition assay, a 0.5% DMSO, the [^3H] labeled ligand (final concentration: 1 nM), and the membrane fraction were mixed (total volume: 1 mL), and the mixture was incubated at 4° C. (for ω3) or at 25° C. (for ω1 and ω2) for one hour. In order to obtain non-specific binding, the non-labeled ligand (final concentration: 10 μM) was added instead of 0.5% DMSO, and in order to study the binding affinity of the present compounds, a solution of the present compound (final concentration: 100 nM for ω3, or 10 μM for ω1 and ω2) in DMSO was added. After the one-hour incubation, the labeled ligand bound to the receptor was collected by filtration with suction through a 0.3% polyethyleneimine-treated GF/B filter using a cell harvester, and washed with ice-cold 50 mM Tris-HCl buffer (for ω3) or ice-cold potassium phosphate buffer (for ω1 and ω2) once. The radioactivity on the GF/B filter was measured with liquid scintillation counter (manufactured by Packard, Tri Carb 2700TR). The results were expressed by the inhibition rate (%) against the binding to the labeled ligand.
row,inhibition at 0.1 µM,SMILES
1,98%,CN(C(=O)Cn1c(=O)sc2ccc(Br)cc21)c1ccccc1 [Example 55]
2,99%,CN(C(=O)Cn1c(=O)sc2c(Br)cccc21)c1ccccc1 [Example 56]
3,100%,CCCN(CCC)C(=O)Cn1c(=O)n(C)c2ccc(-c3ccccc3)cc21 [Example 60]
4,100%,CN(C(=O)Cn1c(=O)n(C)c2cc(-c3ccccc3)ccc21)c1ccccc1 [Example 61]
5,93%,"CN(C(=O)Cn1c(=O)n2c3c(cccc31)CCC2)c1ccccc1 [Example 113, N-Methyl-2-(2-oxo-5,6-dihydro-4H-imidazo[4,5,1-ij]quinolin-1(2H)-yl)-N-phenylacetamide]"
6,95%,"CN(C(=O)Cn1c(=O)n2c3c(cc(Oc4ccccc4)cc31)CCC2)c1ccccc1 [Example 136, N-Methyl-2-(2-oxo-8-phenoxy-5,6-dihydro-4H-imidazo[4,5,1-ij]quinolin-1(2H)-yl)-N-phenylacetamide]"
7,83%,"CC(C(=O)N(C)c1ccccc1)n1c(=O)n2c3c(cc(Br)cc31)CCC2 (stereo not drawn) [Example 137, 2-(8-Bromo-2-oxo-5,6-dihydro-4H-imidazo[4,5,1-ij]quinolin-1(2H)-yl)-N-methyl-N-phenylpropanamide]"
8,83%,"CN(C(=O)C1CCc2cccc3c2n1c(=O)n3C)c1ccccc1 (stereo not drawn) [Example 142, N,1-Dimethyl-2-oxo-N-phenyl-1,2,5,6-tetrahydro-4H-imidazo[4,5,1-ij]quinoline-4-carboxamide]"
9,89%,"CN(C(=O)Cn1c(=O)oc2ccc(C(=O)c3ccccc3)cc21)c1ccccc1 [Example 373, 2-(5-Benzoyl-2-oxo-1,3-benzoxazol-3(2H) -yl)-N-methyl-N-phenyl-acetamide]"
10,97%,"CC(=O)c1cc(Br)cc2c1oc(=O)n2CC(=O)N(C)c1ccccc1 [Example 389, 2-(7-Acetyl-5-bromo-2-oxo-1,3-benzoxazol-3(2H)-yl)-N-methyl-N-phenyl-acetamide]"
11,95%,"CN(C(=O)Cn1c(=O)sc2ccc(-c3ccncc3)cc21)c1ccccc1 [Example 395, N-Methyl-2-(2-oxo-5-pyridin-4-yl-1,3-benzothiazol-3(2H)-yl)-N-phenyl-acetamide]"
12,88%,"CC(C)n1c(=O)n(CC(=O)N(C)c2ccccc2)c2cc(-c3ccccc3)ccc21 [Example 401, 2-(3-Isopropyl-2-oxo-6-phenyl-2,3-dihydro-1H-benzimidazol-1-yl)-N-methyl-N-phenylacetamide]"

# From patent publication US20070191447A1, “Novel heterocyclic compound” (priority 2004, published 2007)
